Reference: PubChem BioAssay AID330 (DTP/NCI, 2004)
Where “and” joins values, the source holds several entries; their conditions need not be identical. Equal entries are not always repeated. Toxic doses and inconclusive results are not listed. Rule for the calls: active = survival T/C of 150% or more; inactive = T/C below 125% in these data.

System: P388 leukemia ip, CD2F1 mice, survival T/C
Test: NCI In Vivo Anticancer Drug Screen. Data for tumor model P388 Leukemia (intraperitoneal) in CD2F1 (CDF1) mice
Details: endpoint: median survival time, higher = longer survival
Outline: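 Mice carrying the transplanted tumor received test compound or vehicle. Survival was recorded in each group, and the value is the treated-group measurement divided by that of the vehicle-treated control group.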

[1] = dose: 60.0 mg/kg/injection, schedule: Q01DX005 (ip), vehicle: saline with Tween-80
[2] = dose: 120.0 mg/kg/injection, schedule: Q01DX005 (ip), vehicle: saline with Tween-80
[3] = dose: 240.0 mg/kg/injection, schedule: Q01DX005 (ip), vehicle: saline with Tween-80
[4] = dose: 60.0 mg/kg/injection, schedule: Q01DX005 (ip), vehicle: Klucel (hydroxypropylcellulose) (HPC)
[5] = dose: 120.0 mg/kg/injection, schedule: Q01DX005 (ip), vehicle: Klucel (hydroxypropylcellulose) (HPC)
[6] = dose: 100.0 mg/kg/injection, schedule: Q04DX003 (ip), vehicle: saline
[7] = dose: 50.0 mg/kg/injection, schedule: Q01DX009 (ip), vehicle: saline with Tween-80
[8] = dose: 100.0 mg/kg/injection, schedule: Q01DX009 (ip), vehicle: saline with Tween-80
[9] = dose: 200.0 mg/kg/injection, schedule: Q01DX009 (ip), vehicle: saline with Tween-80
[10] = dose: 50.0 mg/kg/injection, schedule: Q01DX005 (ip), vehicle: saline with Tween-80
[11] = dose: 100.0 mg/kg/injection, schedule: Q01DX005 (ip), vehicle: saline with Tween-80

Measured: T/C

O=C1CN2CCN3CC(=O)NC(=O)[C@H]3[C@H]2C(=O)N1
inactive: [1] 101 % of control | [2] 101 % of control | [3] 93 % of control

CCC(C(=O)O)C1(C(=O)O)CCCCCC1 (centres undefined)
inactive: dose: 100.0 mg/kg/injection, schedule: Q01DX001 (ip), vehicle: saline with Tween-80 101 % of control | dose: 100.0 mg/kg/injection, schedule: Q04DX002 (ip), vehicle: saline with Tween-80 98 % of control | dose: 200.0 mg/kg/injection, schedule: Q01DX001 (ip), vehicle: saline with Tween-80 106 % of control | dose: 200.0 mg/kg/injection, schedule: Q04DX002 (ip), vehicle: saline with Tween-80 98 % of control | dose: 400.0 mg/kg/injection, schedule: Q01DX001 (ip), vehicle: saline with Tween-80 108 % of control | dose: 400.0 mg/kg/injection, schedule: Q04DX002 (ip), vehicle: saline with Tween-80 109 % of control

COc1cccc(S(=O)c2ccc([N+](=O)[O-])c3no[n+]([O-])c23)c1 (centres undefined)
inactive: dose: 3.75 mg/kg/injection, schedule: Q01DX009 (ip), vehicle: saline with Tween-80 95 % of control | dose: 7.5 mg/kg/injection, schedule: Q01DX009 (ip), vehicle: saline with Tween-80 104 % of control | dose: 15.0 mg/kg/injection, schedule: Q01DX009 (ip), vehicle: saline with Tween-80 112 % of control

COC(=O)c1cnc(N)n1C
inactive: dose: 12.5 mg/kg/injection, schedule: Q01DX009 (ip), vehicle: distilled water + Tween-80 101 % of control

Cc1c(=O)n(C)c2ccccc2[n+]1[O-]
inactive: [1] 96 % of control | [2] 93 % of control | [3] 100 % of control

CCOC(=O)/C=C1\CSC2=NC(c3ccccc3)CN21 (centres undefined)
inactive: [4] 94 % of control | [5] 94 % of control | dose: 240.0 mg/kg/injection, schedule: Q01DX005 (ip), vehicle: Klucel (hydroxypropylcellulose) (HPC) 86 % of control

Cc1cccc(C(=O)OCCBr)c1
inactive: dose: 18.75 mg/kg/injection, schedule: Q01DX009 (ip), vehicle: saline sonified 104 % of control | dose: 37.5 mg/kg/injection, schedule: Q01DX009 (ip), vehicle: saline sonified 109 % of control | dose: 49.5 mg/kg/injection, schedule: Q01DX009 (ip), vehicle: saline sonified 109 % of control | dose: 75.0 mg/kg/injection, schedule: Q01DX009 (ip), vehicle: saline sonified 104 % of control | dose: 112.5 mg/kg/injection, schedule: Q01DX009 (ip), vehicle: saline sonified 104 % of control

N=C(N)c1ccc2oc(/C=C/C=C/C=C/c3cc4cc(C(=N)N)ccc4o3)cc2c1
inactive: [6] 124 % of control

O=C1NN2CCN=C2c2ccncc21
inactive: dose: 50.0 mg/kg/injection, schedule: Q01DX005 (ip), vehicle: saline 97 % of control | dose: 100.0 mg/kg/injection, schedule: Q01DX005 (ip), vehicle: saline 103 % of control | dose: 200.0 mg/kg/injection, schedule: Q01DX005 (ip), vehicle: saline 100 % of control

O=[N+]([O-])c1cc([N+](=O)[O-])c2ccccc2c1NS(=O)(=O)c1ccc(Cl)c(Cl)c1Cl
inactive: [7] 103 % of control and 122 % of control | [8] 112 % of control | [9] 106 % of control

CCCCCOC(=S)S
inactive: dose: 9.37 mg/kg/injection, schedule: Q01DX009 (ip), vehicle: saline 109 % of control | dose: 9.37 mg/kg/injection, schedule: Q04DX003 (ip), vehicle: saline with Tween-80 95 % of control | dose: 18.75 mg/kg/injection, schedule: Q01DX009 (ip), vehicle: saline 100 % of control | dose: 18.75 mg/kg/injection, schedule: Q04DX003 (ip), vehicle: saline with Tween-80 109 % of control | dose: 37.5 mg/kg/injection, schedule: Q01DX009 (ip), vehicle: saline 100 % of control | dose: 37.5 mg/kg/injection, schedule: Q04DX003 (ip), vehicle: saline with Tween-80 104 % of control

CC1(C)OC(=O)C(CCc2ccncc2)(CCc2ccncc2)C(=O)O1
inactive: [7] 115 % of control | [8] 104 % of control | [9] 106 % of control

O=C(NP1(=O)NCc2ccccc2CN1)OC1CCCC1
inactive: dose: 3.12 mg/kg/injection, schedule: Q01DX005 (ip), vehicle: Klucel (hydroxypropylcellulose) (HPC) 99 % of control and 92 % of control | dose: 6.25 mg/kg/injection, schedule: Q01DX005 (ip), vehicle: Klucel (hydroxypropylcellulose) (HPC) 101 % of control and 91 % of control | dose: 12.5 mg/kg/injection, schedule: Q01DX005 (ip), vehicle: Klucel (hydroxypropylcellulose) (HPC) 99 % of control and 104 % of control | dose: 25.0 mg/kg/injection, schedule: Q01DX005 (ip), vehicle: Klucel (hydroxypropylcellulose) (HPC) 92 % of control and 93 % of control and 98 % of control | dose: 50.0 mg/kg/injection, schedule: Q01DX005 (ip), vehicle: Klucel (hydroxypropylcellulose) (HPC) 91 % of control | dose: 200.0 mg/kg/injection, schedule: Q01DX005 (ip), vehicle: Klucel (hydroxypropylcellulose) (HPC) 88 % of control

COc1cc(OC)c2ccc(=O)oc2c1/C=C\C1(C)CCC(C)=CC1c1c(OC)cc(OC)c2ccc(=O)oc12 (centres undefined)
inactive: dose: 2.5 mg/kg/injection, schedule: Q01DX005 (ip), vehicle: Klucel (hydroxypropylcellulose) (HPC) 96 % of control | dose: 5.0 mg/kg/injection, schedule: Q01DX005 (ip), vehicle: Klucel (hydroxypropylcellulose) (HPC) 105 % of control | dose: 10.0 mg/kg/injection, schedule: Q01DX005 (ip), vehicle: Klucel (hydroxypropylcellulose) (HPC) 117 % of control | dose: 20.0 mg/kg/injection, schedule: Q01DX005 (ip), vehicle: Klucel (hydroxypropylcellulose) (HPC) 96 % of control | dose: 40.0 mg/kg/injection, schedule: Q01DX005 (ip), vehicle: Klucel (hydroxypropylcellulose) (HPC) 86 % of control

Clc1ccc(C(CCOc2ccccc2Br)Cn2ccnc2)c(Cl)c1 (centres undefined)
inactive: dose: 12.5 mg/kg/injection, schedule: Q01DX009 (ip), vehicle: saline with Tween-80 89 % of control | dose: 25.0 mg/kg/injection, schedule: Q01DX009 (ip), vehicle: saline with Tween-80 90 % of control | [7] 101 % of control and 94 % of control

Clc1ccccc1N=Cc1ccc(C=Nc2ccccc2Cl)cc1
inactive: dose: 12.5 mg/kg/injection, schedule: Q01DX009 (ip), vehicle: Klucel (hydroxypropylcellulose) (HPC) 99 % of control | dose: 25.0 mg/kg/injection, schedule: Q01DX009 (ip), vehicle: Klucel (hydroxypropylcellulose) (HPC) 92 % of control

OC(COc1c2ccccc2nc2ccccc12)CN1CCOCC1 (centres undefined)
inactive: [10] 99 % of control | [11] 93 % of control

CC(=O)OCN(C)N=Nc1ccc(Br)cc1
inactive: dose: 36.0 mg/kg/injection, schedule: Q01DX005 (ip), vehicle: Klucel (hydroxypropylcellulose) (HPC) 94 % of control | dose: 72.0 mg/kg/injection, schedule: Q01DX005 (ip), vehicle: Klucel (hydroxypropylcellulose) (HPC) 92 % of control

O=C1c2c(O)ccc(Cl)c2C(=O)C2CC=CCC12 (centres undefined)
inactive: dose: 50.0 mg/kg/injection, schedule: Q04DX003 (ip), vehicle: DMSO 94 % of control | dose: 100.0 mg/kg/injection, schedule: Q04DX003 (ip), vehicle: DMSO 88 % of control | dose: 200.0 mg/kg/injection, schedule: Q04DX003 (ip), vehicle: DMSO 87 % of control

CC(/C=N\Nc1ccc(C(=O)O)cc1)=N/N=C(N)N
inactive: [6] 99 % of control | dose: 200.0 mg/kg/injection, schedule: Q04DX003 (ip), vehicle: saline 98 % of control | dose: 400.0 mg/kg/injection, schedule: Q04DX003 (ip), vehicle: saline 100 % of control

O=C(/C=C1\Nc2ccccc2N(C(=O)c2ccccc2)C1c1ccccc1)c1ccccc1 (centres undefined)
inactive: dose: 7.5 mg/kg/injection, schedule: Q01DX005 (ip), vehicle: Klucel (hydroxypropylcellulose) (HPC) 103 % of control | dose: 15.0 mg/kg/injection, schedule: Q01DX005 (ip), vehicle: Klucel (hydroxypropylcellulose) (HPC) 88 % of control | dose: 30.0 mg/kg/injection, schedule: Q01DX005 (ip), vehicle: Klucel (hydroxypropylcellulose) (HPC) 88 % of control and 91 % of control | [5] 88 % of control

O=c1[nH]cnc2cc3[nH]ncc3cc12
inactive: dose: 1.5 mg/kg/injection, schedule: Q01DX005 (ip), vehicle: saline with Tween-80 95 % of control | dose: 3.0 mg/kg/injection, schedule: Q01DX005 (ip), vehicle: saline with Tween-80 87 % of control | dose: 6.25 mg/kg/injection, schedule: Q01DX005 (ip), vehicle: saline with Tween-80 97 % of control | [11] 89 % of control | dose: 200.0 mg/kg/injection, schedule: Q01DX005 (ip), vehicle: saline with Tween-80 88 % of control

N#C/C(=C1/OC(=N)C(c2ccc(Cl)cc2)C1=O)c1ccc(Cl)cc1 (centres undefined)
inactive: [10] 110 % of control | [11] 99 % of control

c1cnc2c(c1)n[n+]1[n-]c3ccccc3n21
inactive: [4] 96 % of control | [5] 91 % of control
